Legend:
Male SD rats [1] = assay: Rat tail bleeding model; type: in vivo; conditions: rat tail transected 0.5 to 4 hours after administration; prolongation = ratio of treated vs. mean vehicle value; relative to apixaban
Description: II Rat Tail Bleeding Model
Male SD rats were allocated randomly and administrated. After the administration, the rats were anesthetized by intraperitoneal injection of 10% chloral hydrate. At the time point of 0.5 to 4 hours (Tmax in PK) after the administration, the tails of anesthetized rats were transected 3 mm from the tip and vertically immersed in saline at 37° C. The time point when the continuous blood flow ceased for >30 s was measured. The prolongation of bleeding time was expressed as a ratio of treated vs. the mean vehicle value. Effects of compounds were determined as described below.

Male SD rats [2] = assay: Arteriovenous shunt model in rats; type: in vivo, rat; set-up: concentration or dose not given beside the values; conditions: rats given orally 2-4 hours before shunt opened; shunt 15 minutes; thrombus weight, treated vs. mean vehicle
Source text: III. Arteriovenous Shunt Model in Rats
Two 10 cm-long polyethylene tubings (1.50 and 2.88 mm of inner and outer diameter, respectively) linked to a central part (8 cm-long, 2.11 and 3.77 mm of inner and outer diameter, respectively) containing a 6 cm silk thread and filled with heparin (3.125 U/ml) were placed between the right carotid artery and the left jugular vein in rats.
Male SD rats were anesthetized by intraperitoneal injection of 10% chloral hydrate after oral dose, inverted fixation, then the right catotid artery and left vena jugularis externa were isolated, the proximal and distal sutures of catotid artery were tied. The syringe needle were cannulated into the catotid artery and fasted, the other of the tube was cannulated into the right vena jugularis externa. Rats were given orally 2-4 hours before the shunt was opened. Blood flowed from the right carotid artery into the polyethylene tubing and then return to left vena jugularis externa. The shunt was then disconnected 15 minutes later and the silk thread covered with thrombus was immediately withdrawn and weighed. The wet weight of the thrombus was determined. Then the silk thread was dried at 60° C. for 4 h to get the dry weight of the thrombus. The anti-thrombotic effects of these agents were expressed as percentage inhibition of thrombus formation based on the treated vs. the corresponding mean vehicle.

Factor Xa = molecular target: T1, Factor Xa (Homo sapiens, UniProt P00742); assay: Anti-Factor Xa activity assay (chromogenic substrate CS-11(22)); type: biochemical; conditions: ratio of compound IC50 to apixaban IC50; Factor Xa 0.1 U/ml, absorbance at 405 nm, 37° C.
T1 construct: purchased MERK
T1 sequence (P00742 235-488 limits assumed): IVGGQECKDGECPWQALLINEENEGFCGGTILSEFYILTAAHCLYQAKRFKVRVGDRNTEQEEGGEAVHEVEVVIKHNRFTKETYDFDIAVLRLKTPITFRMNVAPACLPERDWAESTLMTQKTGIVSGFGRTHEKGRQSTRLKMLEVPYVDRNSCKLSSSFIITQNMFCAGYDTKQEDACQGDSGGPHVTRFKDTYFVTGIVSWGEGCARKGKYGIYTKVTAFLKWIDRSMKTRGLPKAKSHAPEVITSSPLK
T1 sequence (P00742 41-179 partner limits assumed): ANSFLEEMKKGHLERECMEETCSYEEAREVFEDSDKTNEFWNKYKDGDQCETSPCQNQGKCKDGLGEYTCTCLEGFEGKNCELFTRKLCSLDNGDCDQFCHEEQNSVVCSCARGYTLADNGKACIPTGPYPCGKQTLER
Description: I. Anti-Factor Xa Activity Assay
Substrate: CS-1122 (Hyphen)
Buffer: 50 mM TrisHCl, 150 mM NaCl, PH8.3
100 μL of buffer, 50 μL of different concentrations of compounds (diluted with buffer) and 50 μl of 0.1 U/ml Factor Xa enzyme (diluted with buffer) were added to a 96-well plate. After 15 min of exposure, 50 μL of chromogenic substrate 2.5 mg/ml CS-11 (22) was added. The substrate hydrolysis was monitored by measuring absorbance at 405 nm at 37° C. for up to 30 min (interval: 30 seconds) using a microplate spectrophotometer. IC50 was calculated by bliss.

Structure (SMILES)	The Prolongation of bleeding time (compound)/The Prolongation of bleeding time(apixaban) (Male SD rats [1])	Inhibition of thrombus formation (%) (Male SD rats [2])	IC50(Compound)/IC50(apixaban) (Factor Xa)
CCOc1ccc(-n2nc(C(N)=O)c3c2C(=O)N(c2ccc(-n4ccccc4=O)c(C)c2)CC3)cc1F [A 38, 1-(3-fluoro-4-ethoxyphenyl)-6-(3-methyl-4-(2-oxopyridin-1(2H)-yl)phenyl)-7-oxo-4,5,6,7-tetrahydro-1H-pyrazolo[3,4-c]pyridine-3-carboxamide]	<1	70.5	<1
CCOc1ccc(-n2nc(C(N)=O)c3c2C(=O)N(c2ccc(N4CCOCC4=O)c(C)c2)CC3)cc1F [A 34, 1-(3-fluoro-4-ethoxyphenyl)-6-(3-methyl-4-(3-oxomorpholino)phenyl)-7-oxo-4,5,6,7-tetrahydro-1H-pyrazolo[3,4-c]pyridine-3-carboxamide]	<1	62.5	<1
